From paper PMC8534050, “Discovery of a Potent and Highly Isoform-Selective Inhibitor of the Neglected Ribosomal Protein S6 Kinase Beta 2 (S6K2)” (Cancers, 2021)

Experiments:
Assay in all cases: DSF thermal shift assay
Assay type in all cases: binding
Details in all cases: inhibitor 10 μM, protein 2 μM
DAPK3 = molecular target: T1, DAPK3 (Homo sapiens, UniProt O43293)
T1 construct: purchased in-house DSF (thermal shift) panel per Fedorov et al
Experimental: (§1) Differences in the melting temperature (ΔTm) were measured as described by Fedorov et al.. Purified proteins were buffered in 25 mM HEPES (pH 7.5), 500 mM NaCl and were assayed in a 384-well plate with a final protein concentration of 2 μM in 10 μL assay volume. Inhibitors were added to a final concentration of 10 μM using an ECHO 550 acoustic dispenser (Labcyte, San José, CA, USA). As a fluorescence probe, SYPRO-Orange (Molecular Probes, Eugene, OR, USA) was added in a 1:5000 dilution. […] Data were analyzed through Boltzmann equation in the Protein Thermal Shift software (Applied Biosystems, Waltham, MA, USA). Samples were measured in technical duplicates.

TAF1 = molecular target: T2, TAF1 (Homo sapiens, UniProt P21675)
T2 construct: purchased in-house DSF (thermal shift) panel per Fedorov et al
T2 sequence (P21675 whole entry): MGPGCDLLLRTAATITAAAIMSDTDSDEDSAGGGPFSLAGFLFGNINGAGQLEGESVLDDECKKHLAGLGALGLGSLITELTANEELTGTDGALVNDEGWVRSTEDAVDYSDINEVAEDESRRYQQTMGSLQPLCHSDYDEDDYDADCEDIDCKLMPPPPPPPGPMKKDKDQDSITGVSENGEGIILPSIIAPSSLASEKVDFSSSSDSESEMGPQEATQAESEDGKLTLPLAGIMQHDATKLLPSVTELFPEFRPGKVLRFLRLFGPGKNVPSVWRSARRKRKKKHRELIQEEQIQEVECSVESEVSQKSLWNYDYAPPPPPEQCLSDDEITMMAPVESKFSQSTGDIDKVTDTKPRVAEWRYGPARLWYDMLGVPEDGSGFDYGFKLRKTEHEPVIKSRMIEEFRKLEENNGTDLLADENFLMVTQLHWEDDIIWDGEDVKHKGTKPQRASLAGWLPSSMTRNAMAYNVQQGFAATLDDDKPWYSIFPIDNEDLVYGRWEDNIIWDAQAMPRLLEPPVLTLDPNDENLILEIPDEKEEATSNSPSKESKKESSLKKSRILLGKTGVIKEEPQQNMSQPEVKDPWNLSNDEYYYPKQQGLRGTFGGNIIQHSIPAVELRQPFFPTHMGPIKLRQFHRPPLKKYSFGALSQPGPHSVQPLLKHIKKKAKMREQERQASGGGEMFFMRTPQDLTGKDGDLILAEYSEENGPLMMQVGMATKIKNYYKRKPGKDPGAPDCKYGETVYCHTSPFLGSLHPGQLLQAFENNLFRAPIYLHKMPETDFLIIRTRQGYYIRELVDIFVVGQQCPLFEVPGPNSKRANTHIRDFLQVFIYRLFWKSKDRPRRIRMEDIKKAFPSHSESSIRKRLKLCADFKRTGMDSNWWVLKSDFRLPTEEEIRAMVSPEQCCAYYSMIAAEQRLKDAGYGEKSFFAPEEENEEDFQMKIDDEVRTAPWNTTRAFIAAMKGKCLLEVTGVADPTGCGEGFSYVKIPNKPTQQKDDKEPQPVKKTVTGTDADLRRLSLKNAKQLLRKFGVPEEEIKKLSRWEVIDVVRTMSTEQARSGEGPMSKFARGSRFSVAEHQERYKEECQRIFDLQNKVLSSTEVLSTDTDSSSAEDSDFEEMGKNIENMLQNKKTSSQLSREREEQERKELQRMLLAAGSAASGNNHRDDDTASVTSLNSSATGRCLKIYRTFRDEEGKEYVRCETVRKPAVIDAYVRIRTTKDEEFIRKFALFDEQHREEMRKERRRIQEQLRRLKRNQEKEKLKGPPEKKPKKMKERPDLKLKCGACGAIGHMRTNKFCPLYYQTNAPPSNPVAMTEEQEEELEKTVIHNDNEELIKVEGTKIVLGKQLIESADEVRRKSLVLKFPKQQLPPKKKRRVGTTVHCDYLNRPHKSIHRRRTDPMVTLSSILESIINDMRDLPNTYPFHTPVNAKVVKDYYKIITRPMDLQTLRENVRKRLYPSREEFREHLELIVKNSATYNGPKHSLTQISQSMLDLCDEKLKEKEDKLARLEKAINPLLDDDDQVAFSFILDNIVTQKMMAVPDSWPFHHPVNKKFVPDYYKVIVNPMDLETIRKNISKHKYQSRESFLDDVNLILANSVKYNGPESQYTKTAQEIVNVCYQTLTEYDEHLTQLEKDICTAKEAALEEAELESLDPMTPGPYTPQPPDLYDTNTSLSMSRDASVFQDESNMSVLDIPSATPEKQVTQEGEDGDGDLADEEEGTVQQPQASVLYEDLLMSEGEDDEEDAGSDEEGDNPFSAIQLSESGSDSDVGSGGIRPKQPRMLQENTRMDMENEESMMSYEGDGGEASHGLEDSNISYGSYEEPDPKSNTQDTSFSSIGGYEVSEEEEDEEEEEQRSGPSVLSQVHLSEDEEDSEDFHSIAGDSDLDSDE
Experimental: as §1

FLT1 = molecular target: T3, FLT1 (Homo sapiens, UniProt P17948)
T3 construct: purchased in-house DSF (thermal shift) panel per Fedorov et al
Experimental: as §1

FGFR1 = molecular target: T4, FGFR1 (Homo sapiens, UniProt P11362)
T4 construct: purchased in-house DSF (thermal shift) panel per Fedorov et al; IC50 follow-up at Reaction Biology Corp
Experimental: as §1

CHEK2 = molecular target: T5, CHEK2 (Homo sapiens, UniProt O96017)
T5 construct: purchased in-house DSF (thermal shift) panel per Fedorov et al; IC50 follow-up at Reaction Biology Corp
Experimental: as §1

MAPK9 = molecular target: T6, MAPK9 (Homo sapiens, UniProt P45984)
T6 construct: purchased in-house DSF (thermal shift) panel per Fedorov et al
Experimental: as §1

MAPK14 = molecular target: T7, MAPK14 (Homo sapiens, UniProt Q16539)
T7 construct: purchased in-house DSF (thermal shift) panel per Fedorov et al
Experimental: as §1

CASK = molecular target: T8, CASK (Homo sapiens, UniProt O14936)
T8 construct: purchased in-house DSF (thermal shift) panel per Fedorov et al; IC50 follow-up at Reaction Biology Corp
Experimental: as §1

PDK4 = molecular target: T9, PDK4 (Homo sapiens, UniProt Q16654)
T9 construct: purchased in-house DSF (thermal shift) panel per Fedorov et al; IC50 follow-up at Reaction Biology Corp
Experimental: as §1

MST4 = molecular target: T10, MST4 (Homo sapiens, UniProt Q9P289)
T10 construct: purchased in-house DSF (thermal shift) panel per Fedorov et al
Experimental: as §1

AURKB = molecular target: T11, AURKB (Homo sapiens, UniProt Q96GD4)
T11 construct: purchased in-house DSF (thermal shift) panel per Fedorov et al
Experimental: as §1

VRK1 = molecular target: T12, VRK1 (Homo sapiens, UniProt Q99986)
T12 construct: purchased in-house DSF (thermal shift) panel per Fedorov et al; IC50 follow-up at Reaction Biology Corp
Experimental: as §1

CLK1 = molecular target: T13, CLK1 (Homo sapiens, UniProt P49759)
T13 construct: purchased in-house DSF (thermal shift) panel per Fedorov et al; IC50 follow-up at Reaction Biology Corp
Experimental: as §1

STK17 = molecular target: T14, STK17 (Homo sapiens, UniProt Q9UEE5)
T14 construct: purchased in-house DSF (thermal shift) panel per Fedorov et al
Experimental: as §1

EPHA5 = molecular target: T15, EPHA5 (Homo sapiens, UniProt P54756)
T15 construct: purchased in-house DSF (thermal shift) panel per Fedorov et al; IC50 follow-up at Reaction Biology Corp
Experimental: as §1

PAK4 = molecular target: T16, PAK4 (Homo sapiens, UniProt O96013)
T16 construct: purchased in-house DSF (thermal shift) panel per Fedorov et al
Experimental: as §1

BRPF1 = molecular target: T17, BRPF1 (Homo sapiens, UniProt P55201)
T17 construct: purchased in-house DSF (thermal shift) panel per Fedorov et al; IC50 follow-up at Reaction Biology Corp
T17 sequence (P55201 whole entry): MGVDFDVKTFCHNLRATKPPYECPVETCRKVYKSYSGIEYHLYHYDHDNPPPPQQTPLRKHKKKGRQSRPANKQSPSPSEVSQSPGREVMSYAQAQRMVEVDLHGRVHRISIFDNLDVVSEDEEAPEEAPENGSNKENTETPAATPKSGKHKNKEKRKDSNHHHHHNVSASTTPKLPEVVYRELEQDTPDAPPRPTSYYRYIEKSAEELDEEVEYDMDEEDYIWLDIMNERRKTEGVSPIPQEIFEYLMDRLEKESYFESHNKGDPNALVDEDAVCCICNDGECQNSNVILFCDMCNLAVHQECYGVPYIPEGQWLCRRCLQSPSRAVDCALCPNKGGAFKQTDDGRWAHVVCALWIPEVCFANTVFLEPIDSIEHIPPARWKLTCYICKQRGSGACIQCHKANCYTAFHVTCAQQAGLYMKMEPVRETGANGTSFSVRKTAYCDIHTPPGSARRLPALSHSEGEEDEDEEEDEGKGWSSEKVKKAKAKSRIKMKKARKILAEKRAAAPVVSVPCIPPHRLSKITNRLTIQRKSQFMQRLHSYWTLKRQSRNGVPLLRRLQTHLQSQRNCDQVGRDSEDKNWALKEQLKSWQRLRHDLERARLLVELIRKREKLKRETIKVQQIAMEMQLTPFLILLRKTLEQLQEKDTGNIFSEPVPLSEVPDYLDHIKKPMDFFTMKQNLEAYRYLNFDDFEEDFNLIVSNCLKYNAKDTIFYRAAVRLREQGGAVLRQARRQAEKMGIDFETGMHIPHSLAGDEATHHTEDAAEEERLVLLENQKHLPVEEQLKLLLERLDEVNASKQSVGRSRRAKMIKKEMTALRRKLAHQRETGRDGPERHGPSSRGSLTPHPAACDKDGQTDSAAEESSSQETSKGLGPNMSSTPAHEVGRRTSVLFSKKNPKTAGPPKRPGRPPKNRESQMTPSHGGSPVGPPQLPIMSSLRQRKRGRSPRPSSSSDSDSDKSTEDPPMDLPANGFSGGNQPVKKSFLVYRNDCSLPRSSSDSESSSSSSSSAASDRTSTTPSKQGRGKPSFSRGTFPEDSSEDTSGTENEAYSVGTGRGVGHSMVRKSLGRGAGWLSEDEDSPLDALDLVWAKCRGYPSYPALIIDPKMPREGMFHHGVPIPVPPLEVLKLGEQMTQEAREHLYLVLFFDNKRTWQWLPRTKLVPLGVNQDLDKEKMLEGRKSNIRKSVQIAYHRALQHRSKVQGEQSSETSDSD
Experimental: as §1

CSNK1D = molecular target: T18, CSNK1D (Homo sapiens, UniProt P48730)
T18 construct: purchased in-house DSF (thermal shift) panel per Fedorov et al
Experimental: as §1

TLK1 = molecular target: T19, TLK1 (Homo sapiens, UniProt Q9UKI8)
T19 construct: purchased in-house DSF (thermal shift) panel per Fedorov et al; IC50 follow-up at Reaction Biology Corp
T19 sequence (Q9UKI8 whole entry): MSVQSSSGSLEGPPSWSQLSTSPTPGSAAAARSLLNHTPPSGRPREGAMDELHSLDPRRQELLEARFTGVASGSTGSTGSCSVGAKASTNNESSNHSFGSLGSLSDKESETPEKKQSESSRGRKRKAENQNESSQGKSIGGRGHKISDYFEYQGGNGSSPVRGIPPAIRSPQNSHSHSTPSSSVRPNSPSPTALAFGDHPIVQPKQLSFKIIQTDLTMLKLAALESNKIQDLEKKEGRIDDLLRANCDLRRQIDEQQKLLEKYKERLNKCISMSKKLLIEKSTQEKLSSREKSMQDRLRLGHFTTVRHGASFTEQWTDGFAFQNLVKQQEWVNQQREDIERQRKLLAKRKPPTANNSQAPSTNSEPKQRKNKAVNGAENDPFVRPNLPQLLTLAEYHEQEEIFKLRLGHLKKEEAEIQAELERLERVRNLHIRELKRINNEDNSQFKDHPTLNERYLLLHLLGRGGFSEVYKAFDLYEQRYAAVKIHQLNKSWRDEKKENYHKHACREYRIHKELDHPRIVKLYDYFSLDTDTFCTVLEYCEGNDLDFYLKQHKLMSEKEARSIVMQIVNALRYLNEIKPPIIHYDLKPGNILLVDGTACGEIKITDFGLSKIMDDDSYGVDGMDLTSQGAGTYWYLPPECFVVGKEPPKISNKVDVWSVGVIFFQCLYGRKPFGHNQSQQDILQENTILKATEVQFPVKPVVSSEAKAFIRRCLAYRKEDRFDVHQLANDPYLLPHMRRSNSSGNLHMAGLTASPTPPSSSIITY
Experimental: as §1

BMP2K = molecular target: T20, BMP2K (Homo sapiens, UniProt Q9NSY1)
T20 construct: purchased in-house DSF (thermal shift) panel per Fedorov et al
Experimental: as §1

CLK3 = molecular target: T21, CLK3 (Homo sapiens, UniProt P49761)
T21 construct: purchased in-house DSF (thermal shift) panel per Fedorov et al
T21 sequence (P49761 whole entry): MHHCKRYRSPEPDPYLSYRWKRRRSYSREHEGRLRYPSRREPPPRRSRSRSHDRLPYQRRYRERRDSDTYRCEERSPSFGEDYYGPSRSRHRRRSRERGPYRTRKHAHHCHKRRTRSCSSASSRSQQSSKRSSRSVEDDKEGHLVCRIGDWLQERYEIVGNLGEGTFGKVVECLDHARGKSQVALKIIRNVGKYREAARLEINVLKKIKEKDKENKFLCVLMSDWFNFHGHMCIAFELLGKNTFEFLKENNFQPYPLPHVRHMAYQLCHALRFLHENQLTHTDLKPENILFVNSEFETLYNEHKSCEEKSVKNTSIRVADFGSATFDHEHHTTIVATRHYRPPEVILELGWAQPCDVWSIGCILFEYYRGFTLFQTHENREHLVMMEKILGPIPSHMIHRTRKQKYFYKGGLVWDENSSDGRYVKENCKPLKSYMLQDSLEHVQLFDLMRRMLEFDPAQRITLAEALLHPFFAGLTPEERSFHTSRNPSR
Experimental: as §1

RPS6KA1 = molecular target: T22, RPS6KA1 (Homo sapiens, UniProt Q15418)
T22 construct: purchased in-house DSF (thermal shift) panel per Fedorov et al
Experimental: as §1

MAP2K4 = molecular target: T23, MAP2K4 (Homo sapiens, UniProt P45985)
T23 construct: purchased in-house DSF (thermal shift) panel per Fedorov et al
T23 sequence (P45985 whole entry): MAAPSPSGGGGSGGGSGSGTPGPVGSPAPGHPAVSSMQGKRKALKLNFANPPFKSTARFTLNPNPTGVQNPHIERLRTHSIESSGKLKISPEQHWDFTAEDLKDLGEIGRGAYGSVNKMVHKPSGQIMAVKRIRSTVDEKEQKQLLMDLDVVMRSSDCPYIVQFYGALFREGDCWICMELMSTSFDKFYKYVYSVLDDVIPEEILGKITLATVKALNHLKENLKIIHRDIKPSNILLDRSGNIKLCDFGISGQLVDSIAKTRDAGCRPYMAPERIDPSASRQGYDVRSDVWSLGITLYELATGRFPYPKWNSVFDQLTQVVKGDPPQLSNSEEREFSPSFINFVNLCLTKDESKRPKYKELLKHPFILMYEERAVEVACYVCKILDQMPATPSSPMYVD
Experimental: as §1

CDK2 = molecular target: T24, CDK2 (Homo sapiens, UniProt P24941)
T24 construct: purchased in-house DSF (thermal shift) panel per Fedorov et al; IC50 follow-up at Reaction Biology Corp
Experimental: as §1

STK38L = molecular target: T25, STK38L (Homo sapiens, UniProt Q9Y2H1)
T25 construct: purchased in-house DSF (thermal shift) panel per Fedorov et al; IC50 follow-up at Reaction Biology Corp
Experimental: as §1

GPRK5 = molecular target: T26, GPRK5 (Homo sapiens, UniProt P34947)
T26 construct: purchased in-house DSF (thermal shift) panel per Fedorov et al
Experimental: as §1

STK4 = molecular target: T27, STK4 (Homo sapiens, UniProt Q13043)
T27 construct: purchased in-house DSF (thermal shift) panel per Fedorov et al; IC50 follow-up at Reaction Biology Corp
Experimental: as §1

PKMYT1 = molecular target: T28, PKMYT1 (Homo sapiens, UniProt Q99640)
T28 construct: purchased in-house DSF (thermal shift) panel per Fedorov et al; IC50 follow-up at Reaction Biology Corp
Experimental: as §1

GSG2 = molecular target: T29, GSG2 (Homo sapiens, UniProt Q8TF76)
T29 construct: purchased in-house DSF (thermal shift) panel per Fedorov et al
Experimental: as §1

CDKL1 = molecular target: T30, CDKL1 (Homo sapiens, UniProt Q00532)
T30 construct: purchased in-house DSF (thermal shift) panel per Fedorov et al; IC50 follow-up at Reaction Biology Corp
Experimental: as §1

ULK3 = molecular target: T31, ULK3 (Homo sapiens, UniProt Q6PHR2)
T31 construct: purchased in-house DSF (thermal shift) panel per Fedorov et al
Experimental: as §1

FES = molecular target: T32, FES (Homo sapiens, UniProt P07332)
T32 construct: purchased in-house DSF (thermal shift) panel per Fedorov et al; IC50 follow-up at Reaction Biology Corp
Experimental: as §1

AAK1 = molecular target: T33, AAK1 (Homo sapiens, UniProt Q2M2I8)
T33 construct: purchased in-house DSF (thermal shift) panel per Fedorov et al; IC50 follow-up at Reaction Biology Corp
Experimental: as §1

MAP2K1 = molecular target: T34, MAP2K1 (Homo sapiens, UniProt Q02750)
T34 construct: purchased in-house DSF (thermal shift) panel per Fedorov et al
Experimental: as §1

FGFR3 = molecular target: T35, FGFR3 (Homo sapiens, UniProt P22607)
T35 construct: purchased in-house DSF (thermal shift) panel per Fedorov et al
Experimental: as §1

STK17B = molecular target: T36, STK17B (Homo sapiens, UniProt O94768)
T36 construct: purchased in-house DSF (thermal shift) panel per Fedorov et al; IC50 follow-up at Reaction Biology Corp
Experimental: as §1

MAPKAPK2 = molecular target: T37, MAPKAPK2 (Homo sapiens, UniProt P49137)
T37 construct: purchased in-house DSF (thermal shift) panel per Fedorov et al; IC50 follow-up at Reaction Biology Corp
Experimental: as §1

SRPK1 = molecular target: T38, SRPK1 (Homo sapiens, UniProt Q96SB4)
T38 construct: purchased in-house DSF (thermal shift) panel per Fedorov et al
Experimental: as §1

CSNK2A2 = molecular target: T39, CSNK2A2 (Homo sapiens, UniProt P19784)
T39 construct: purchased in-house DSF (thermal shift) panel per Fedorov et al
Experimental: as §1

CK2A1 = molecular target: T40, CK2A1 (Homo sapiens, UniProt P68400)
T40 construct: purchased in-house DSF (thermal shift) panel per Fedorov et al
Experimental: as §1

- ΔTm at 10 µM (DAPK3): 0.9 °C
- ΔTm at 10 µM (TAF1): 0.1 °C
- ΔTm at 10 µM (FLT1): 0.1 °C
- ΔTm at 10 µM (FGFR1): 0.4 °C
- ΔTm at 10 µM (CHEK2): 0.4 °C
- ΔTm at 10 µM (MAPK9): 0 °C
- ΔTm at 10 µM (MAPK14): -0.5 °C
- ΔTm at 10 µM (CASK): -0.9 °C
- ΔTm at 10 µM (PDK4): -0.1 °C
- ΔTm at 10 µM (MST4): -1.1 °C
- ΔTm at 10 µM (AURKB): 0 °C
- ΔTm at 10 µM (VRK1): -0.4 °C
- ΔTm at 10 µM (CLK1): 0.3 °C
- ΔTm at 10 µM (STK17): -0.7 °C
- ΔTm at 10 µM (EPHA5): 0.5 °C
- ΔTm at 10 µM (PAK4): 0.8 °C
- ΔTm at 10 µM (BRPF1): 0.9 °C
- ΔTm at 10 µM (CSNK1D): 0.2 °C
- ΔTm at 10 µM (TLK1): 0 °C
- ΔTm at 10 µM (BMP2K): 0 °C
- ΔTm at 10 µM (CLK3): 0.1 °C
- ΔTm at 10 µM (RPS6KA1): 0.3 °C
- ΔTm (MAP2K4): > 2 °C
- ΔTm at 10 µM (MAP2K4): 3 °C
- ΔTm at 10 µM (CDK2): -0.2 °C
- ΔTm at 10 µM (STK38L): -0.2 °C
- ΔTm at 10 µM (GPRK5): -0.6 °C
- ΔTm at 10 µM (STK4): -0.5 °C
- ΔTm at 10 µM (PKMYT1): -1 °C
- ΔTm at 10 µM (GSG2): 0.1 °C
- ΔTm at 10 µM (CDKL1): -0.4 °C
- ΔTm at 10 µM (ULK3): 0.4 °C
- ΔTm at 10 µM (FES): 0 °C
- ΔTm at 10 µM (AAK1): -0.2 °C
- ΔTm at 10 µM (MAP2K1): -0.3 °C
- ΔTm at 10 µM (FGFR3): 0.1 °C
- ΔTm at 10 µM (STK17B): -0.8 °C
- ΔTm at 10 µM (MAPKAPK2): -0.3 °C
- ΔTm at 10 µM (SRPK1): 0 °C
- ΔTm at 10 µM (CSNK2A2): 0.4 °C
- ΔTm at 10 µM (CK2A1): 0.1 °C
SMILES: CCc1cnc(Nc2nc(Cl)ccc2[N+](=O)[O-])nc1N1CCN(Cc2nc3cc(C(F)(F)F)ccc3[nH]2)CC1 [Compound 2]
